Data: publication PMC6968685 (Journal of Enzyme Inhibition and Medicinal Chemistry, 2020)
Read-outs that look alike come from different tables or passages of the source.

Assays:
[1] = test system: Plasmodium telomeric sequence FPf8T G-quadruplex; assay: FRET melting experiments, FPf8T; format: binding, P. falciparum; conditions: K+ conditions
Description: (§1) These were performed with dual-labelled oligonucleotides mimicking the Plasmodium telomeric sequences FPf1T [FAM-5′(GGGTTTA)3-GGG3′-TAMRA] and FPf8T [FAM-5′ (GGGTTCA)3GGG3′-TAMRA], the Trypanosoma 9 and 11 chromosomic sequence FTrypBT (also named FEBR1T) [FAM-5′[…]3′-TAMRA], the human telomeric sequence F21T [FAM-(GGGTTA)3-GGG3′-TAMRA], and the human duplex sequence FdxT [FAM5′-[…]-hexaethyleneglycol-[…]3′-TAMRA][51]^,[52]. The oligonucleotides were pre-folded in 10 mM lithium cacodylate buffer (pH 7.2), with 10 mM KCl and 90 mM LiCl (K^+condition). The FAM emissions were recorded at 516 nm using a 492-nm excitation wavelength in the absence and presence of a single compound as a function of temperature (25–95 °C) in 96-well microplates by using a Stratagene MX3000P real-time PCR device at a rate of 1 °C·min^−1. Data were normalised between 0 and 1, and the required temperature for half-denaturation of oligonucleotides corresponding to the emission value of 0.5 was taken as the Tm. […] For each compound, three independent experiments were carried out.

[2] = test system: human duplex sequence FdxT; assay: FRET melting experiments, FdxT duplex control; format: binding; conditions: K+ conditions
Description: as §1

[3] = test system: Trypanosoma 9 and 11 chromosomic sequence FTrypBT (FEBR1T) G-quadruplex; assay: FRET melting experiments, FtrypBT; format: binding, T. brucei brucei; conditions: K+ conditions
Description: as §1

[4] = Cytotoxicity evaluation, MTT; format: cell-based, human; conditions: human
In short: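 HepG2 hepatocarcinoma cells exposed to compound in duplicate, then viability measured by MTT reduction (0.5 mg/ml), formazan dissolved in DMSO and read at 570 nm against 630 nm. Viability expressed as percent of untreated cells; CC50 taken from dose-response curve, doxorubicin as positive control.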

[5] = test system: T. brucei brucei AnTat 1.9; assay: In vitro antitrypanosomal activity, Alamar Blue assay; format: cell-based; conditions: Trypanosoma brucei; slender bloodstream trypomastigotes, AnTat 1.9 strain; read-out: Trypanosoma brucei brucei IC50 values, Trypanos Antat 1.9
In short: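 Viability read-out: resazurin (Alamar Blue) fluorescence, 530 nm excitation/590 nm emission, after 5 h dye exposure following 69 h compound incubation at 37 °C, 5% CO2, 2000 parasites per well, doses in duplicate. IC50 values fitted nonlinearly, three independent runs.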

[6] = test system: Plasmodium telomeric sequence FPf1T G-quadruplex; assay: FRET melting experiments, FPf1T; format: binding, P. falciparum; conditions: K+ conditions
Description: as §1

[7] = test system: human telomeric sequence F21T G-quadruplex; assay: FRET melting experiments, F21T; format: binding; conditions: K+ conditions
Description: as §1

[8] = test system: L. donovani (MHOM/IN/00/DEVI) promastigotes; assay: In vitro antileishmanial activity, MTT assay on promastigotes; format: cell-based; conditions: Leishmania donovani, 72 h incubation, ≥10 = no activity noted at the highest concentration tested
In short: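 Log-phase L. donovani MHOM/IN/00/DEVI promastigotes (10^6/ml, Schneider's + 20% FCS) were exposed to graded compound concentrations (DMSO <0.5% v/v) for 72 h at 27 °C, in duplicate. Growth measured by MTT reduction (4 h, A570 nm); IC50 obtained by regression.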

[9] = test system: P. falciparum CQ-sensitive strain 3D7; assay: In vitro antiplasmodial activity, SYBR Green I fluorescence-based method, strain 3D7; format: cell-based; conditions: Plasmodium falciparum, read-out: P. falciparum strains IC50 values, 3D7
In short: (§2)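 P. falciparum 3D7 and W2 cultured in human erythrocytes in RPMI with 0.5% Albumax I at 37 °C, exposed 48 h to compounds tested […]. Parasite DNA read by SYBR Green I fluorescence (ex 485/em 535 nm); IC50 by non-linear regression, mean of three independent experiments.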

[10] = test system: P. falciparum CQ-resistant strain W2; assay: In vitro antiplasmodial activity, SYBR Green I fluorescence-based method, strain W2; format: cell-based; conditions: Plasmodium falciparum, read-out: P. falciparum strains IC50 values, W2
In short: as §2

[11] = 2 μM compound, 0.2 μM oligonucleotide
[12] = chloroquine-sensitive strain 3D7, 48 h incubation
[13] = chloroquine-resistant strain W2, 48 h incubation

| Structure (SMILES) | ΔTm FPf8T [1, 11] | ΔTm FdxT [2, 11] | ΔTm FtrypBT [3, 11] | CC50 at 72 h [4] | IC50 [5] | ΔTm FPf1T [6, 11] | ΔTm F21T [7, 11] | IC50 [8] | IC50 [9, 12] | ΔTm FPf8T ([1]; tested at 0.5 μM) | ΔTm FdxT ([2]; tested at 0.5 μM) | ΔTm FtrypBT ([3]; tested at 0.5 μM) | ΔTm FPf1T ([6]; tested at 0.5 μM) | ΔTm F21T ([7]; tested at 0.5 μM) | IC50 [10, 13] | ΔTm FPf8T ([1]; tested at 1 μM) | IC50 ([10]; W2, 48 h) | ΔTm FPf1T ([6]; tested at 1 μM) | ΔTm F21T ([7]; tested at 1 μM) | IC50 ([9]; 3D7, 48 h) |
| --- | --- | --- | --- | --- | --- | --- | --- | --- | --- | --- | --- | --- | --- | --- | --- | --- | --- | --- | --- | --- |
| c1ccc2c(-c3ccc(CNCCCN4CCOCC4)cc3)nc(-c3ccc(CNCCCN4CCOCC4)cc3)nc2c1 [Compound 3f, 2,4-Bis{4-[(3-morpholinopropyl)aminomethyl]phenyl}quinazoline] | 2.9 ± 0.3 °C | −0.2 ± 0.2 °C | 2.8 ± 0.1 °C | 4520 ± 400 nM | 810 ± 63 nM | 3.3 ± 0.3 °C | 3.1 ± 0.5 °C | ≥ 10000 nM | 420 ± 83 nM |  |  |  |  |  |  |  |  |  |  |  |
| c1cc(CNCCN2CCOCC2)cc(-c2cc(-c3cccc(CNCCN4CCOCC4)c3)c3ccccc3n2)c1 [Compound 1t, 2,4-Bis{3-[(2-morpholinoethyl)aminomethyl]phenyl}quinoline] | 0.6 ± 0.7 °C | −1.6 ± 0.4 °C | 0.6 ± 0.4 °C | 3930 ± 1100 nM | 460 ± 120 nM | 0.9 ± 0.2 °C | 0.3 ± 0.3 °C | ≥ 10000 nM | 230 ± 21 nM |  |  |  |  |  |  |  |  |  |  |  |
| C[n+]1cc(NC(=O)c2ccc3ccc4ccc(C(=O)Nc5cc6ccccc6[n+](C)c5)nc4c3n2)cc2ccccc21 [PhenDC3, reference compound] |  |  |  |  |  |  |  |  |  | 24.7 ± 0.2 °C | 0.1 ± 0.2 °C | 19.2 ± 0.2 °C | 24.6 ± 0.1 °C | 26.3 ± 0.1 °C |  |  |  |  |  |  |
| CN(C)CCCNCc1ccc(-c2cc(-c3ccc(CNCCCN(C)C)cc3)c3ccccc3n2)cc1 [Compound 1b, 2,4-Bis{4-[(3-dimethylaminopropyl)aminomethyl]phenyl}quinoline] | 9.9 ± 0.1 °C | 0.0 ± 0.7 °C | 7.8 ± 1.2 °C | 4090 ± 200 nM | 820 ± 22 nM | 8.4 ± 1.0 °C | 12.7 ± 0.6 °C | ≥ 10000 nM | 470 ± 60 nM |  |  |  |  |  | 880 ± 140 nM |  |  |  |  |  |
| c1ccc2c(-c3ccc(CNCCCN4CCOCC4)cc3)cc(-c3ccc(CNCCCN4CCOCC4)cc3)nc2c1 [Compound 1g, 2,4-Bis{4-[(3-morpholinopropyl)aminomethyl]phenyl}quinoline] | 3.7 ± 0.6 °C | −1.8 ± 0.4 °C | 2.0 ± 0.2 °C | 1470 ± 300 nM | 380 ± 45 nM | 3.7 ± 0.3 °C | 7.1 ± 2.7 °C | ≥ 10000 nM | 99 ± 7 nM |  |  |  |  |  |  |  |  |  |  |  |
| COc1ccc2c(-c3ccc(CNCCCCN(C)C)cc3)nc(-c3ccc(CNCCCCN(C)C)cc3)nc2c1 [Compound 3m, 7-Methoxy-2,4-bis{4-[(4-dimethylaminobutyl)aminomethyl]phenyl}quinazoline] | 17.8 ± 0.5 °C | 1.7 ± 0.3 °C | 13.8 ± 0.5 °C | 25100 ± 1200 nM | 750 ± 60 nM | 18.3 ± 0.7 °C | 19.4 ± 0.4 °C | ≥ 10000 nM | 1180 ± 430 nM |  |  |  |  |  | 4220 ± 550 nM |  |  |  |  |  |
| CN1CCN(CCCNCc2ccc(-c3cc(-c4ccc(CNCCCN5CCN(C)CC5)cc4)c4ccccc4n3)cc2)CC1 [Compound 1e, 2,4-Bis{4-[(3–(4-methylpiperazin-1-yl)propyl)aminomethyl]phenyl}quinoline] | 9.2 ± 0.5 °C | 0.1 ± 0.1 °C | 7.4 ± 0.1 °C | 11300 ± 500 nM | 1780 ± 89 nM | 9.4 ± 0.6 °C | 11.3 ± 1.1 °C | ≥ 10000 nM | 470 ± 60 nM |  |  |  |  |  | 1290 ± 63 nM |  |  |  |  |  |
| CCN(CC)CCCC(C)Nc1ccnc2cc(Cl)ccc12 (stereo not drawn) [Chloroquine, reference compound] |  |  |  |  |  |  |  |  |  |  |  |  |  |  |  | 2.4 ± 1.2 °C | 400 ± 40 nM | 1.9 ± 0.1 °C | 2.4 ± 1.1 °C | 110 ± 10 nM |
| c1ccc2c(-c3ccc(CNCCN4CCOCC4)cc3)nc(-c3ccc(CNCCN4CCOCC4)cc3)nc2c1 [Compound 3g, 2,4-Bis{4-[(2-morpholinoethyl)aminomethyl]phenyl}quinazoline] | 1.2 ± 0.4 °C | 0.3 ± 0.2 °C | 1.0 ± 0.5 °C | 4080 ± 600 nM | 1270 ± 632 nM | 1.4 ± 0.1 °C | 4.2 ± 2.1 °C | ≥ 10000 nM | 150 ± 27 nM |  |  |  |  |  |  |  |  |  |  |  |
| CN(C)CCCNCc1ccc(-c2nc(-c3ccc(CNCCCN(C)C)cc3)c3ccccc3n2)cc1 [Compound 3b, 2,4-Bis{4-[(3-dimethylaminopropyl)aminomethyl]phenyl}quinazoline] | 11.2 ± 0.8 °C | 0.1 ± 0.1 °C | 10.0 ± 0.4 °C | 4010 ± 800 nM | 1180 ± 57 nM | 11.6 ± 1.1 °C | 13.2 ± 0.3 °C | ≥ 10000 nM | 620 ± 77 nM |  |  |  |  |  |  |  |  |  |  |  |
| OC(c1cc(C(F)(F)F)nc2c(C(F)(F)F)cccc12)C1CCCCN1 (stereo not drawn) [Mefloquine, reference compound] |  |  |  |  |  |  |  |  | 60 ± 3 nM |  |  |  |  |  | 16 ± 2 nM | 6.6 ± 2.3 °C |  | 3.1 ± 0.5 °C | 2.6 ± 0.5 °C |  |
| c1cc(CNCCCN2CCOCC2)cc(-c2cc(-c3cccc(CNCCCN4CCOCC4)c3)c3ccccc3n2)c1 [Compound 1s, 2,4-Bis{3-[(3-morpholinopropyl)aminomethyl]phenyl}quinoline] | 2.8 ± 0.5 °C | −1.5 ± 0.4 °C | 1.8 ± 0.7 °C | 2630 ± 500 nM | 730 ± 264 nM | 3.0 ± 0.4 °C | 2.5 ± 0.1 °C | ≥ 10000 nM | 210 ± 40 nM |  |  |  |  |  |  |  |  |  |  |  |
| c1cc(CNCCN2CCOCC2)cc(-c2nc(-c3cccc(CNCCN4CCOCC4)c3)c3ccccc3n2)c1 [Compound 3v, 2,4-Bis{3-[(2-morpholinoethyl)aminomethyl]phenyl}quinazoline] | 0.5 ± 0.4 °C | 0.0 ± 0.0 °C | 0.6 ± 0.1 °C | 6460 ± 1000 nM | 1370 ± 658 nM | 0.5 ± 0.3 °C | 0.1 ± 0.1 °C | ≥ 10000 nM | 360 ± 126 nM |  |  |  |  |  |  |  |  |  |  |  |
